Bridge positions count the residues as written; N and C are the ends. Square brackets hold non-standard residues; d marks the D form. Peptide text beside a SMILES is read from it. dPhe(4-Cl) = N[C@H](Cc1ccc(Cl)cc1)C(=O)O; dPhe(2-Cl) = N[C@H](Cc1ccccc1Cl)C(=O)O; Nle = CCCC[C@H](N)C(=O)O; Orn = NCCC[C@H](N)C(=O)O; Dab = NCC[C@H](N)C(=O)O
The compounds below were run against hMC1r (Homo sapiens, UniProt Q01726) (assay: Assay for agonist activity: cAMP accumulation in HBL melanoma cells). Conditions: HBL, compared to NDP-α-MSH as 100%, read-out: MC-1 Emax (average; cAMP HBL).
Format: cell-based
Parameters: endogenous in cells; host or cells: HBL human melanoma cells
Method: 8.2 Assay for Agonist Activity.
Confluent HBL cells that express hMC1r or HEK-293 cells that express recombinant hMC4r were detached from culture plates by incubation in enzyme-free cell dissociation buffer. Dispersed cells were suspended in Earle's Balanced Salt Solution containing 10 mM HEPES (pH 7.5), 1 mM MgCl2, 1 mM glutamine, 0.5% albumin and 0.3 mM 3-isobutyl-1-methyl-xanthine (IBMX), a phosphodiesterase inhibitor. The cells were plated in 96-well plates at a density of 0.4×10^5 cells per well for HBL cells and 0.5×10^5 cells per well for HEK-293 cells and pre-incubated for 10 minutes. Cells were exposed for 15 minutes at 37° C. to peptides of the present invention dissolved in DMSO (final DMSO concentration of 1%) at a concentration range of 0.05-5000 nM in a total assay volume of 200 μL. […] Data analysis was performed by nonlinear regression analysis with Graph-Pad Prism® software.
All results are expressed in nM except for Emax values, which are percentage values. Peptides with the captioned primary sequence were synthesized and purified as described in Section 7 above, with the resulting peptide having the structure depicted.

hMC1r, sequence (Q01726 whole entry): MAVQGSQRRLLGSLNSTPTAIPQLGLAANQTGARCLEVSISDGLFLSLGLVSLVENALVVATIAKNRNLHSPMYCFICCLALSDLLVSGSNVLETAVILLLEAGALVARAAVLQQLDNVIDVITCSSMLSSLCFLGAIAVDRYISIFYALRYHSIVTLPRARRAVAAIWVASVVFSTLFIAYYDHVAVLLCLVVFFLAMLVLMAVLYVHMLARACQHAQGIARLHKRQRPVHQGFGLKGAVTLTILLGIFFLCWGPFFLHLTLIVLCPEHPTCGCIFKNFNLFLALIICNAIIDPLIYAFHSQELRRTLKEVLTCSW

Row | Structure (SMILES) | Emax [%]
1 | N=C(N)NCCC[C@@H]1NC(=O)[C@@H](Cc2ccccc2)NC(=O)[C@H](Cc2c[nH]cn2)NC(=O)[C@@H](NC(=O)C2CC2)CCC(=O)NCC[C@@H](C(=O)N[C@@H](Cc2c[nH]c3ccccc23)C(N)=O)NC1=O [Example 9.19, cyclo-propanoyl-cyclo(Glu-His-D-Phe-Arg-Dab)-Trp-NH2] | 83
2 | CCCC[C@H](NC(C)=O)C(=O)N[C@H]1CCC(=O)NCC[C@@H](C(N)=O)NC(=O)[C@H](C)NC(=O)[C@@H](Cc2ccccc2)NC(=O)[C@H](Cc2c[nH]cn2)NC1=O [Example 9.33, Ac-Nle-cyclo(Glu-His-D-Phe-Ala-Dab)-NH2] | 73
3 | CCCC[C@H](NC(C)=O)C(=O)N[C@H]1CCNC(=O)CCC(=O)NC[C@@H](C(=O)N[C@@H](Cc2c[nH]c3ccccc23)C(N)=O)NC(=O)[C@H](CCCNC(=N)N)NC(=O)[C@@H](Cc2ccccc2)NC(=O)[C@H](Cc2c[nH]cn2)NC1=O [Example 9.29, Ac-Nle-cyclo(Dab-His-D-Phe-Arg-Dap)-Trp-NH2] | 78
4 | CCCC[C@H](NC(C)=O)C(=O)N[C@H]1CCC(=O)NCC[C@@H](C(=O)N[C@@H](Cc2c[nH]c3ccccc23)C(N)=O)NC(=O)[C@H](CCCNC(=N)N)NC(=O)[C@@H](Cc2ccccc2)NC(=O)[C@H](C)NC1=O [Example 9.36, Ac-Nle-cyclo(Glu-Ala-D-Phe-Arg-Dab)-Trp-NH2] | 86
5 | N=C(N)NCCC[C@@H]1NC(=O)[C@@H](Cc2ccccc2)NC(=O)[C@H](Cc2c[nH]cn2)NC(=O)[C@@H](NC(=O)Cc2ccccc2)CCC(=O)NCC[C@@H](C(=O)N[C@@H](Cc2c[nH]c3ccccc23)C(N)=O)NC1=O [Example 9.23, phenyl acetyl-cyclo(Glu-His-D-Phe-Arg-Dab)-Trp-NH2] | 82
6 | CCCC[C@H](NC(C)=O)C(=O)N[C@H]1CCC(=O)NCC[C@@H](C(N)=O)NC(=O)[C@H](CCCNC(=N)N)NC(=O)[C@@H](Cc2ccccc2Cl)NC(=O)[C@H](CCCN)NC1=O [Example 9.57, Ac-Nle-cyclo(Glu-Orn-D-Phe(2-Cl)-Arg-Dab)-NH2] (Ac-[Nle]E[Orn][dPhe(2-Cl)]R[Dab]-NH2; lactam 2-6) | 88
7 | CCCC[C@H](NC(C)=O)C(=O)N[C@H]1CCC(=O)NCC[C@@H](C(N)=O)NC(=O)[C@H](CCCNC(=N)N)NC(=O)[C@@H](Cc2ccc(OC)cc2)NC(=O)[C@H](CCCN)NC1=O [Example 9.64, Ac-Nle-cyclo(Glu-Orn-D-Phe(4-OMe)-Arg-Dab)-NH2] (Ac-[Nle]E[Orn][dY](Me)R[Dab]-NH2; lactam 2-6) | 99
8 | CCCC[C@H](NC(C)=O)C(=O)N[C@H]1CCNC(=O)CCC(=O)NCC[C@@H](C(=O)N[C@@H](Cc2c[nH]c3ccccc23)C(N)=O)NC(=O)[C@H](CCCNC(=N)N)NC(=O)[C@@H](Cc2ccccc2)NC(=O)[C@H](Cc2c[nH]cn2)NC1=O [Example 9.27, Ac-Nle-cyclo(Dab-His-D-Phe-Arg-Dab)-Trp-NH2] | 92
9 | CC(=O)N[C@H](Cc1ccccc1)C(=O)N[C@H]1CCC(=O)NCC[C@@H](C(=O)N[C@@H](Cc2c[nH]c3ccccc23)C(N)=O)NC(=O)[C@H](CCCNC(=N)N)NC(=O)[C@@H](Cc2ccccc2)NC(=O)[C@H](Cc2c[nH]cn2)NC1=O [Example 9.12, Ac-D-Phe-cyclo(Glu-His-D-Phe-Arg-Dab)-Trp-NH2] | 75
10 | CCCC[C@H](NC(C)=O)C(=O)N[C@H]1CCC(=O)NCC[C@@H](C(N)=O)NC(=O)[C@H](CCCNC(=N)N)NC(=O)[C@@H](Cc2ccc(Cl)cc2)NC(=O)[C@H](CCCN)NC1=O [Example 9.59, Ac-Nle-cyclo(Glu-Orn-D-Phe(4-Cl)-Arg-Dab)-NH2] (Ac-[Nle]E[Orn][dPhe(4-Cl)]R[Dab]-NH2; lactam 2-6) | 100
11 | N=C(N)NCCC[C@@H]1NC(=O)[C@@H](Cc2ccccc2)NC(=O)[C@H](Cc2c[nH]cn2)NC(=O)[C@@H](NC(=O)CC2CCCC2)CCC(=O)NCC[C@@H](C(=O)N[C@@H](Cc2c[nH]c3ccccc23)C(N)=O)NC1=O [Example 9.21, cyclopentyl acetyl-cyclo(Glu-His-D-Phe-Arg-Dab)-Trp-NH2] | 83
12 | CCCC[C@H](NC(C)=O)C(=O)N[C@H]1CCC(=O)NCC[C@@H](C(=O)N[C@@H](Cc2c[nH]c3ccccc23)C(N)=O)NC(=O)[C@H](C)NC(=O)[C@@H](Cc2ccccc2)NC(=O)[C@H](Cc2c[nH]cn2)NC1=O [Example 9.48, Ac-Nle-cyclo(Glu-His-D-Phe-Ala-Dab)-Trp-NH2] | 72
13 | N=C(N)NCCC[C@@H]1NC(=O)[C@@H](Cc2ccccc2)NC(=O)[C@H](Cc2c[nH]cn2)NC(=O)[C@@H](NC(=O)C2CCCCC2)CCC(=O)NCC[C@@H](C(=O)N[C@@H](Cc2c[nH]c3ccccc23)C(N)=O)NC1=O [Example 9.20, cyclo-hexanoyl-cyclo(Glu-His-D-Phe-Arg-Dab)-Trp-NH2] | 79
14 | N=C(N)NCCC[C@@H]1NC(=O)[C@@H](Cc2ccccc2)NC(=O)[C@H](Cc2c[nH]cn2)NC(=O)[C@@H](NC(=O)CCc2ccccc2)CCC(=O)NCC[C@@H](C(=O)N[C@@H](Cc2c[nH]c3ccccc23)C(N)=O)NC1=O [Example 9.24, phenyl propanoyl-cyclo(Glu-His-D-Phe-Arg-Dab)-Trp-NH2] | 83
15 | CC(=O)N[C@@H](Cc1ccccc1)C(=O)N[C@H]1CCC(=O)NCC[C@@H](C(=O)N[C@@H](Cc2c[nH]c3ccccc23)C(N)=O)NC(=O)[C@H](CCCNC(=N)N)NC(=O)[C@@H](Cc2ccccc2)NC(=O)[C@H](Cc2c[nH]cn2)NC1=O [Example 9.13, Ac-Phe-cyclo(Glu-His-D-Phe-Arg-Dab)-Trp-NH2] | 75
16 | CCCC[C@H](NC(C)=O)C(=O)N[C@H]1CCC(=O)NCC[C@@H](C(N)=O)NC(=O)[C@@H](Cc2ccccc2)NC(=O)[C@H](Cc2c[nH]cn2)NC1=O [Example 9.46, Ac-Nle-cyclo(Glu-His-D-Phe-Dab)-NH2] (Ac-[Nle]EH[dF][Dab]-NH2; lactam 2-5) | 51
17 | CCCC[C@H](NC(C)=O)C(=O)N[C@H]1CCC(=O)NCC[C@@H](C(=O)N[C@@H](Cc2c[nH]c3ccccc23)C(N)=O)NC(=O)[C@H](CCCNC(=N)N)NC(=O)[C@@H](Cc2ccccc2)NC(=O)[C@H](CCCNC(N)=O)NC1=O [Example 9.38, Ac-Nle-cyclo(Glu-Cit-D-Phe-Arg-Dab)-Trp-NH2] | 97
18 | CCCCCCC(=O)N[C@H]1CCC(=O)NCC[C@@H](C(=O)N[C@@H](Cc2c[nH]c3ccccc23)C(N)=O)NC(=O)[C@H](CCCNC(=N)N)NC(=O)[C@@H](Cc2ccccc2)NC(=O)[C@H](Cc2c[nH]cn2)NC1=O [Example 9.18, CH3—(CH2)5—C(═O)-cyclo(Glu-His-D-Phe-Arg-Dab)-Trp-NH2] | 87
19 | CCCC[C@H](NC(C)=O)C(=O)N[C@H]1CCC(=O)NCC[C@@H](C(=O)N[C@@H](Cc2ccc3ccccc3c2)C(N)=O)NC(=O)[C@H](CCCNC(=N)N)NC(=O)[C@@H](Cc2ccccc2)NC(=O)[C@H](Cc2c[nH]cn2)NC1=O [Example 9.10, Ac-Nle-cyclo(Glu-His-D-Phe-Arg-Dab)-Nal 2-NH2] | 83
20 | CCCC[C@H](NC(C)=O)C(=O)N[C@H]1CCC(=O)NCC[C@@H](C(=O)N[C@@H](Cc2c[nH]c3ccccc23)C(N)=O)NC(=O)[C@H](CCCNC(=N)N)NC(=O)[C@@H](Cc2ccccc2)NC(=O)[C@H](CCN)NC1=O [Example 9.41, Ac-Nle-cyclo(Glu-Dab-D-Phe-Arg-Dab)-Trp-NH2] | 108

— patent publication US20220088146A1, “Melanocortin Receptor-Specific Peptide Formulations and Methods for Gastrointestinal Tract-Specific Delivery” (Palatin Technologies, Inc., priority 2018, published 2022)
